# According to patent publication US11578083B2, “Pyrimidinium compounds and their mixtures for combating animal pests” (BASF SE, priority 2017, dated 2023):
# Tests used:
# Assay type in all cases: in vivo
# [1] = tested on: Cowpea aphid (Aphis craccivora); assay: B.3 Cowpea aphid leaf disk test; conditions: foliar, 120 h
# Experimental: If not otherwise specified, the test solutions are prepared as follows:
# The active compound is dissolved at the desired concentration in a mixture of 1:1 (vol:vol) distilled water: acetone. The test solution is prepared at the day of use.
# B.3 Cowpea aphid (Aphis craccivora):
# For evaluating control of Cowpea aphid through contact or systemic means the test unit consists of 24-well-microtiter plates containing broad bean leaf disks.
# The compounds are formulated using a solution containing 75% v/v water and 25% v/v DMSO. Different concentrations of formulated compounds are sprayed onto the leaf disks at 2.5 μl, using a custom built micro atomizer, at two replications.
# After application, the leaf disks are air-dried and 5-8 adult aphids placed on the leaf disks inside the microtiter plate wells. The aphids are then allowed to suck on the treated leaf disks and incubated at about 23±1° C. and about 50±5% relative humidity for 5 days. Aphid mortality and fecundity is then visually assessed.
# [2] = tested on: Rice green leafhopper (Nephotettix virescens); assay: B.1 Rice green leafhopper, sprayed rice seedlings; conditions: 72 h
# Experimental: B.1 Rice Green Leafhopper (Nephotettix virescens):
# Rice seedlings are cleaned and washed 24 hours before spraying. The active compounds are formulated in 50:50 acetone:water (vol:vol), and 0.1% vol/vol surfactant (EL 620) is added. Potted rice seedlings are sprayed with 5 ml test solution, air dried, placed in cages and inoculated with 10 adults. Treated rice plants are kept at about 28-29° C. and relative humidity of about 50-60%. Percent mortality is recorded after 72 hours.
# Chilo suppressalis [3] = assay: B.3a Rice stem borer vial bioassay; conditions: 72 h
# Experimental: Field-collected rice straws were washed with tap water and cut for a certain of length. Straws were air dried before placing individually in vials (=replicate, 3×). About 125 μl test solution was sprayed per vial. Treated rice straws in vials were air dried under the laboratory hood. After air-drying, each straw was inoculated with 10 newly-emerged (0-day old) stem borer larvae. Vials were then covered. Set-up was kept in a holding room maintained at 27° C. and 65% RH for three days. At 3 days after inoculation, rice straws were manually dissected for larval mortality assessment. The data (Table C) show activity against two species of rice stem borers.
# Chilo suppressalis [4] = assay: B.3b Rice striped stem borer, foliar spraying
# Experimental: All three pots (=replicates) of four to five-week old potted rice per treatment were simultaneously sprayed with 12 mL test solution. After spray application, plants were air dried in the laboratory before inoculation. After air-drying, 5 to 6-day old egg masses of CHILSU were used for inoculation. All stem borer-infested potted rice plants were transferred inside the screenhouse 1 day after inoculation until the final assessment. […] Whole plant damage was assessed before cutting each hill at the basal portion for tiller dissection. Each dissected tiller was inspected looking for dead (if possible) and alive stemborer larvae.
# [5] = tested on: green peach aphid (Myzus persicae); assay: Test 2 green peach aphid, artificial diet (mixtures)
# Excerpt: (§1) For evaluating control of green peach aphid (Myzus persicae) through systemic means the test unit consisted of 96-well-microtiter plates containing liquid artificial diet under an artificial membrane.
# (§2) The compounds or mixtures were formulated using a solution containing 75% water and 25% DMSO. Concentrations of formulated compounds or mixtures were pipetted into the aphid diet, using a custom built pipetter, at two replications.
# (§3) For experimental mixtures in these tests identical volumes of both mixing partners at the desired concentrations respectively, were mixed together.
# (§4) After application, 5-8 adult aphids were placed on the artificial membrane inside the microtiter plate wells. The aphids were then allowed to suck on the treated aphid diet and incubated at 23±1° C., 50±5% RH for 3 days. Aphid mortality and fecundity was then visually assessed.
# [6] = tested on: Greenhouse Whitefly (Trialeurodes vaporariorum); assay: Greenhouse Whitefly, egg plant leaf disk (table 5, mixtures); conditions: solo application I-R-1, use rate 2 ppm
# Experimental: For evaluating control of Greenhouse Whitefly (Trialeurodes vaporariorum) the test unit consisted of 96-well-microtiter plates containing a leaf disk of egg plant leaf disk with white fly eggs. The compounds or mixtures were formulated using a solution containing 75% water and 25% DMSO. Concentrations of formulated compounds or mixtures were sprayed onto the […] at 2.5 μl, using a custom built micro atomizer, at two replications.
# as §3
# (§5) After application, microtiter plates were incubated at 23±1° C., 65±5% RH for 6 days. Mortality of hatched crawlers was then visually assessed.
# [7] = tested on: vetch aphid (Megoura viciae); assay: Test 7 vetch aphid, leaf disks (mixtures)
# Experimental: For evaluating control of vetch aphid (Megoura viciae) through contact or systemic means the test unit consisted of 24-well-microtiter plates containing broad bean leaf disks.
# The compounds or mixtures were formulated using a solution containing 75% water and 25% DMSO. Concentrations of formulated compounds or mixtures were sprayed onto the leaf disks at 2.5 μl, using a custom built micro atomizer, at two replications.
# as §3
# After application, the leaf disks were air-dried and 5-8 adult aphids placed on the leaf disks inside the microtiter plate wells. The aphids were then allowed to suck on the treated leaf disks and incubated at 23±1° C., 50±5% RH for 5 days. Aphid mortality and fecundity was then visually assessed.
# [8] = tested on: green peach aphid (Myzus persicae); assay: Test 8 green peach aphid, artificial diet (mixtures)
# Excerpt: as §1, §2, §3, §4
# [9] = tested on: tobacco budworm (Heliothis virescens); assay: Test 10 tobacco budworm, insect diet with eggs (mixtures)
# Experimental: For evaluating control of tobacco budworm (Heliothis virescens) the test unit consisted of 96-well-microtiter plates containing an insect diet and 15-25 H. virescens eggs.
# The compounds or mixtures were formulated using a solution containing 75% water and 25% DMSO. Different concentrations of formulated compounds or mixtures were sprayed onto the insect diet at 10 μl, using a custom built micro atomizer, at two replications.
# as §3
# After application, microtiter plates were incubated at 28±1° C., 80±5% RH for 5 days. Egg and larval mortality was then visually assessed.
# [10] = tested on: Greenhouse Whitefly (Trialeurodes vaporariorum); assay: Test 11 Greenhouse Whitefly, egg plant leaf disk (mixtures)
# Experimental: For evaluating control of Greenhouse Whitefly (Trialeurodes vaporariorum) the test unit consisted of 96-well-microtiter plates containing a leaf disk of egg plant leaf disk with white fly eggs.
# The compounds or mixtures were formulated using a solution containing 75% water and 25% DMSO. Different concentrations of formulated compounds or mixtures were sprayed onto the insect diet at 2.5 μl, using a custom built micro atomizer, at two replications.
# as §3, §5
compound,measurement,setting,value
"C[n+]1c([O-])c(-c2ccccc2)c(=O)n2c1SC[C@@H]2c1cnc(Cl)s1 [I-R-1, (3R)-3-(2-chlorothiazol-5-yl)-8-methyl-7-oxo-6-phenyl-2,3-dihydrothiazolo[3,2-a]pyrimidin-4-ium-5-olate]",mortality at 1 ppm,[1],90%
same,mortality at 1 ppm,[2],100%
same,mortality at 300 ppm,Chilo suppressalis [3],83%
same,Feeding damage (%),"Chilo suppressalis [4]; Chilo suppressalis neonates, foliar spraying, Dose 200 ppm, 14 DAT",7%
same,mortality at 200 ppm,"Chilo suppressalis [4]; Chilo suppressalis, foliar, 336 h",99%
same,Average control %,"[5]; Table 2.1, solo application I-R-1, use rate 2 ppm",25%
same,Average control %,"[5]; Table 2.2, solo application I-R-1, use rate 2 ppm",0%
same,Average control %,"[5]; Table 2.3, solo application I-R-1, use rate 0.4 ppm",50%
same,Average control %,"[5]; Table 2.4, solo application I-R-1, use rate 50 ppm",0%
same,Average control %,"[5]; Table 2.5, solo application I-R-1, use rate 2 ppm",50%
same,Average control %,"[5]; Table 2.6, solo application I-R-1, use rate 2 ppm",25%
same,Average control %,[6],0%
same,Average control %,"[7]; Table 7.1, solo application I-R-1, use rate 2 ppm",25%
same,Average control %,"[7]; Table 7.2, solo application I-R-1, use rate 2 ppm",25%
same,Average control %,"[8]; Table 8.1, solo application I-R-1, use rate 0.4 ppm",0%
same,Average control %,"[8]; Table 8.2, solo application I-R-1, use rate 0.4 ppm",0%
same,Average control %,"[9]; Table 10.1, solo application I-R-1, use rate 10 ppm",0%
same,Average control %,"[9]; Table 10.2, solo application I-R-1, use rate 10 ppm",25%
same,Average control %,"[10]; Table 11.1, solo application I-R-1, use rate 50 ppm",25%
same,Average control %,"[10]; Table 11.2, solo application I-R-1, use rate 10 ppm",0%
